The values below come from ChEMBL document CHEMBL4033633, “N-(Aroyl)-N-(arylmethyloxy)-α-alanines: Selective inhibitors of aldose reductase” (Bioorg Med Chem, 2017).

Molecules are shown by their SMILES.

For one assay, the target named is Aldo-keto reductase family 1 member B1 (Rattus norvegicus, UniProt P07943). The assay can be described thus: Inhibition of Sprague-Dawley rat lens ALR2 using D,L-glyceraldehyde as substrate preincubated for 10 mins followed by substrate addition measured for 5 mins by spectrophotometric method.
`CC(C(=O)O)N(OCc1ccccc1)C(=O)c1ccccc1` (stereo not drawn): the midpoint of inhibition, the IC50, lay at 46.7 µM.

With `COc1ccc(C(=O)N(OCc2ccccc2Cl)C(C)C(=O)O)cc1` (stereo not drawn), the IC50 amounted to 2.38 µM.

For the compound `CC(C(=O)O)N(OCc1ccc(Cl)cc1)C(=O)c1ccccc1` (stereo not drawn), the IC50 was found to be 2.69 µM.

`CC(C(=O)O)N(OCc1cccc(Cl)c1)C(=O)c1ccccc1` (stereo not drawn) yielded a half-maximal inhibitory concentration (IC50) of 12.5 µM.

`CC(C(=O)O)N(OCc1ccccc1Cl)C(=O)c1ccccc1` (stereo not drawn) showed a concentration for half-maximal inhibition (IC50) of 4.88 µM.

For the compound `COc1ccc(C(=O)N(OCc2cccc(Cl)c2)C(C)C(=O)O)cc1` (stereo not drawn), the 50% inhibitory concentration (IC50) is > 100 µM.

Turning to `COc1ccc(C(=O)N(OCc2ccccc2)C(C)C(=O)O)cc1` (stereo not drawn), the IC50 is > 100 µM.

As to `COc1ccc(C(=O)N(OCc2ccc(Cl)cc2)C(C)C(=O)O)cc1` (stereo not drawn), the concentration for half-maximal inhibition (IC50) came out at 10.1 µM.

The target of a further assay is Aldo-keto reductase family 1 member A1 (Rattus norvegicus, UniProt P51635). Nature of the assay: Inhibition of Sprague-Dawley rat kidney ALR1 using sodium D-glucuronate as substrate by spectrophotometric method.
Chain of Aldo-keto reductase family 1 member A1 (P51635 whole entry, looked up): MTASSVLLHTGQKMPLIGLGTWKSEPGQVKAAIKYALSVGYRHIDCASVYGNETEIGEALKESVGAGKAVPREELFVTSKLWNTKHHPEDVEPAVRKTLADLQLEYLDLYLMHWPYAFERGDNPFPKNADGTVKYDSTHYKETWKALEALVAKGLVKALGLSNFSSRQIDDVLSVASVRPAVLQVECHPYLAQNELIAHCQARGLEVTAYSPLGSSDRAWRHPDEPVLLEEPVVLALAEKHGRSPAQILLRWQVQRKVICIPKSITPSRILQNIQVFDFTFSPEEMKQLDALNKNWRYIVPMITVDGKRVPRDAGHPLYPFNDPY
Consider `CC(C(=O)O)N(OCc1ccccc1)C(=O)c1ccccc1` (stereo not drawn), for which the IC50 is > 100 µM.

As to `COc1ccc(C(=O)N(OCc2ccccc2Cl)C(C)C(=O)O)cc1` (stereo not drawn), the IC50 was > 100 µM.

Regarding `CC(C(=O)O)N(OCc1ccc(Cl)cc1)C(=O)c1ccccc1` (stereo not drawn), the IC50 is > 100 µM.

Turning to `CC(C(=O)O)N(OCc1cccc(Cl)c1)C(=O)c1ccccc1` (stereo not drawn), the IC50 is > 100 µM.

`CC(C(=O)O)N(OCc1ccccc1Cl)C(=O)c1ccccc1` (stereo not drawn): the IC50 is > 100 µM.

With `COc1ccc(C(=O)N(OCc2cccc(Cl)c2)C(C)C(=O)O)cc1` (stereo not drawn), the concentration for half-maximal inhibition (IC50) is > 100 µM.

Consider `COc1ccc(C(=O)N(OCc2ccccc2)C(C)C(=O)O)cc1` (stereo not drawn), for which the IC50 was > 100 µM.

Regarding `COc1ccc(C(=O)N(OCc2ccc(Cl)cc2)C(C)C(=O)O)cc1` (stereo not drawn), the IC50 was > 100 µM.

The target of a further assay is Aldo-keto reductase family 1 member B1 (Bos taurus, UniProt P16116). The assay can be described thus: Inhibition of bovine lens ALR2 using D,L-glyceraldehyde as substrate measured for 4 mins by spectrophotometric method.
The compound `COc1ccc(C(=O)N(CC(=O)O)OCc2ccc(Cl)cc2)cc1` had a half-inhibitory concentration (IC50) of 6.3 µM.

In turn, `COc1ccc(C(=O)N(CC(=O)O)OCc2ccccc2)cc1` gave an IC50 of 3.5 µM.

Usually IC50 stands for the concentration that inhibits the measured activity by half.
